From patent US7994209B2, “3-phenoxymethylpyrrolidine compounds” (Theravance, Inc., priority 2009, dated 2011)
Like-named read-outs stand apart in the source and are kept apart here. Marks after values point to notes of the source that are not given here.

Columns and labels:
[1] = target: hSERT (Homo sapiens, UniProt P31645); test: fluorescence-based serotonin reuptake inhibition assay (Tsuruda et al. 2010; data indicated by an asterisk); type: cell-based; parameters: expressed in transfected cells; host or cells: HEK-293; conditions: fluorescence-based assay (values with asterisk); for IC50: read-out: SERT pIC50 (converted)
[2] = target: hNET (Homo sapiens, UniProt P23975); test: fluorescence-based norepinephrine reuptake inhibition assay (Tsuruda et al. 2010; data indicated by an asterisk); type: cell-based; parameters: expressed in transfected cells; host or cells: HEK-293; conditions: fluorescence-based assay (values with asterisk)
[3] = norepinephrine reuptake inhibition, read-out: NET pIC50 (converted)

Chain of hSERT (P31645 whole entry): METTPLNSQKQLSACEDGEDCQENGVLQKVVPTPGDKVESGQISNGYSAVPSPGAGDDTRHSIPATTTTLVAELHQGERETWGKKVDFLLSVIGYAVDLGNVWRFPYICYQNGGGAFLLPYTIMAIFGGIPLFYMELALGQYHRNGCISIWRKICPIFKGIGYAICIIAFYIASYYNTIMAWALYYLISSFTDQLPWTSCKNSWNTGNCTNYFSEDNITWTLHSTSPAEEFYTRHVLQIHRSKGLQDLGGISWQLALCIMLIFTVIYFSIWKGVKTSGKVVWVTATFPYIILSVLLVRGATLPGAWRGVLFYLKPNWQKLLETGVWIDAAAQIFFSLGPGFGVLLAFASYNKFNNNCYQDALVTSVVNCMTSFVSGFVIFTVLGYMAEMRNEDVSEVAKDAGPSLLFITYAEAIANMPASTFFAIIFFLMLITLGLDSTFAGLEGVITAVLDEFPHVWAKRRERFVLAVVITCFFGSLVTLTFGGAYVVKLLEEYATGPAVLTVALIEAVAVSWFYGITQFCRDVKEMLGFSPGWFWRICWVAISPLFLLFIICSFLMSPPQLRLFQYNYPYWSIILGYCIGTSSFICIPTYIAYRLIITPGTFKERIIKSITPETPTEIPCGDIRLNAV
Chain of hNET (P23975 whole entry): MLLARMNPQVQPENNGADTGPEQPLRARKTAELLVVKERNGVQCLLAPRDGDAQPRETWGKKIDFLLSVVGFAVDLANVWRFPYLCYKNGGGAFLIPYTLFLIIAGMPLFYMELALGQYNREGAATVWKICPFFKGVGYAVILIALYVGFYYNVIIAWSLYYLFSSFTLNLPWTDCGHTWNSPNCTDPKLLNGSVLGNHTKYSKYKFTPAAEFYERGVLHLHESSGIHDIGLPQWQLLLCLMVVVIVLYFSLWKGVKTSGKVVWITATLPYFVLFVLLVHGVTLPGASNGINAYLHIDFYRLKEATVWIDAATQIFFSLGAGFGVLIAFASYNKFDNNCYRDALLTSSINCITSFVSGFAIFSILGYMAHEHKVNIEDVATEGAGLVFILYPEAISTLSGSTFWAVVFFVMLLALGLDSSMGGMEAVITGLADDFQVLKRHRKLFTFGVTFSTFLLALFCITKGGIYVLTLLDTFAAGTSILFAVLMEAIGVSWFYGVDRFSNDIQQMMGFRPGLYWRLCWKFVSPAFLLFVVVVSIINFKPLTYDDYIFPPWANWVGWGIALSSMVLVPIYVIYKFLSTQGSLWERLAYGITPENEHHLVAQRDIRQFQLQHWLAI

Structure (SMILES)	IC50 [1] [µM]	IC50 [2, 3] [µM]	SERT pIC50 [1]	IC50 ([2]; NET pIC50, norepinephrine reuptake inhibition) [µM]
Cc1ccc(OC(C2CCCC2)C2CCNC2)c(Cl)c1 (mixture of isomers) [Example 17, 3-[(2-Chloro-4-methylphenoxy)cyclopentylmethyl]pyrrolidine]	≤ 0.01	≤ 0.01	–	–
FC(F)(F)c1c(Cl)cccc1OC(C1CCCC1)C1CCNC1 (single isomer, unassigned) [Example 18-2, 3-[(3-Chloro-2-trifluoromethylphenoxy)cyclopentylmethyl]pyrrolidine]	≤ 0.01	≤ 0.1	–	–
FC(F)(F)c1c(Cl)cccc1OC(C1CCCC1)C1CCNC1 (single isomer, unassigned) [Example 18-3, 3-[(3-Chloro-2-trifluoromethylphenoxy)cyclopentylmethyl]pyrrolidine]	≤ 0.1	≤ 0.01	–	–
Clc1ccc(OC(C2CCCC2)C2CCNC2)c(Cl)c1 (single isomer, unassigned) [Example 18-4, 3-[Cyclopentyl-(2,4-dichlorophenoxy)methyl]pyrrolidine]	≤ 0.01	≤ 0.1	–	–
Clc1ccc(OC(C2CCCC2)C2CCNC2)c(Cl)c1 (single isomer, unassigned) [Example 18-5, 3-[Cyclopentyl-(2,4-dichlorophenoxy)methyl]pyrrolidine]	–	≤ 0.01	≧8.0*	–
CC[C@@H](Oc1ccc(Cl)cc1)[C@H]1CCNC1 [Example 2-4, (S)-3-[(R)-1-(4-Chlorophenoxy)propyl]pyrrolidine]	≤ 0.01	≤ 0.1	–	–
CC[C@@H](Oc1ccc(Cl)c(F)c1)[C@H]1CCNC1 [Example 2-6, (S)-3-[(R)-1-(4-Chloro-3-fluorophenoxy)propyl]pyrrolidine]	≤ 0.01	≤ 0.1	–	–
CC[C@@H](Oc1ccc(Cl)c(Cl)c1)[C@H]1CCNC1 [Example 2-8, (S)-3-[(R)-1-(3,4-Dichlorophenoxy)propyl]pyrrolidine]	≤ 0.01	≤ 0.1	–	–
CC[C@H](Oc1cc(F)cc(Cl)c1)[C@H]1CCNC1 [Example 2-10, (S)-3-[(S)-1-(3-Chloro-5-fluorophenoxy)propyl]pyrrolidine]	≤ 0.1	≤ 0.01	–	–
CC[C@@H](Oc1cc(F)cc(Cl)c1)[C@H]1CCNC1 [Example 2-11, (S)-3-[(R)-1-(3-Chloro-5-fluorophenoxy)propyl]pyrrolidine]	≤ 0.1	≤ 0.01	–	–
CC[C@@H](Oc1ccc(Cl)c(C)c1)[C@H]1CCNC1 [Example 2-14, (S)-3-[(R)-1-(4-Chloro-3-methylphenoxy)propyl]pyrrolidine]	≤ 0.01	≤ 0.1	–	–
CC[C@H](Oc1cc(C)c(Cl)c(C)c1)[C@H]1CCNC1 [Example 2-15, (S)-3-[(S)-1-(4-Chloro-3,5-dimethylphenoxy)propyl]pyrrolidine]	≤ 0.01	≤ 0.1	–	–
CC[C@H](Oc1cc(Cl)cc(OC)c1)[C@H]1CCNC1 [Example 2-20, (S)-3-[(S)-1-(3-Chloro-5-methoxyphenoxy)propyl]pyrrolidine]	≤ 0.1	≤ 0.1	–	–
CC[C@@H](Oc1ccccc1Cl)[C@H]1CCNC1 [Example 2-24, (S)-3-[(R)-1-(2-Chlorophenoxy)propyl]pyrrolidine]	≤ 0.1	≤ 0.1	–	–
CC[C@@H](Oc1cccc(Cl)c1Cl)[C@H]1CCNC1 [Example 2-31, (S)-3-[(R)-1-(2,3-Dichlorophenoxy)propyl]pyrrolidine]	≤ 0.01	≤ 0.01	–	–
CC[C@@H](Oc1ccc(Cl)cc1Cl)[C@H]1CCNC1 [Example 2-34, (S)-3-[(R)-1-(2,4-Dichlorophenoxy)propyl]pyrrolidine]	≤ 0.01	–	–	≤ 0.1
CC[C@H](Oc1c(F)cc(Cl)cc1Cl)[C@H]1CCNC1 [Example 2-35, (S)-3-[(S)-1-(2,4-Dichloro-6-fluorophenoxy)propyl]pyrrolidine]	≤ 0.01	≤ 0.01	–	–
CC[C@@H](Oc1c(F)ccc(OC)c1Cl)[C@H]1CCNC1 [Example 2-45, (S)-3-[(R)-1-(2-Chloro-6-fluoro-3-methoxyphenoxy)propyl]pyrrolidine]	≤ 0.01	≤ 0.01	–	–
